Results: article PMC6383948, “Evaluation of a class of isatinoids identified from a high-throughput screen of human kinase inhibitors as anti-Sleeping Sickness agents” (PLoS Neglected Tropical Diseases, 2019)
Marks after values point to notes of the source that are not given here.

Legend:
T. b. brucei = T. b. brucei growth inhibition EC50 assay (resazurin, 72 h); type: cell-based, Trypanosoma brucei brucei Lister 427; conditions: 72 h, resazurin, error within ±0.20 (Table 2) or ±0.08 (Table 3) log units; for EC50: Trypanosoma brucei, read-out: T.b.b. pEC50 (converted)
Protocol: Mid-log phase growth T. b. brucei was diluted to a working cell density of 2,750 cells/mL and 90 μL/well dispensed into 96-well flat-bottom transparent assay plates (Nunc). Ten μL/well from intermediate plates were added. The final top concentration of compounds was 40 μM in 0.4% DMSO per well.
Assay plates were incubated for 72 h at 37°C and 5% CO2. Four hours prior to the end of the incubation, 20 μL of a 440 μM resazurin solution in prewarmed HMI-9 was added to each well and incubated for another 4 h. Fluorescence was then measured in an Infinite F200 plate reader (Tecan) at 550 nm (excitation filter) and 590 nm (emission filter). A 4-parameter equation was employed to fit the dose-response curves and determine of EC50 using the SigmaPlot 13.0 software. Assays were performed in duplicate at least twice, to achieve a minimal n = 3 per dose response.
Bloodstream Trypanosoma brucei brucei Lister 427 was cultured in Hirumi’s modified Iscove’s medium (HMI-9), supplemented with 10% heat-inactivated FBS, at 37 °C and 5% CO2 in T-25 vented flask (Corning®).
For dose-response experiments, compound plates were prepared for each analogue by serial 3-fold dilutions in 100% DMSO. Five concentration points (mammalian cytotoxicity) or ten concentration points (parasite growth inhibition), were made in 96-well transparent Nunclon plates. Pentamidine is routinely included in compound plates as internal quality control, and plates are stored sealed at -20 °C for no more than four weeks.

MRC5-SV2 cell line = assay: Cytotoxicity assay in MRC5 (resazurin, 48 h); type: cell-based, human; conditions: MRC5 toxicity
Protocol: For dose-response experiments, compound plates were prepared for each analogue by serial 3-fold dilutions in 100% DMSO. Five concentration points (mammalian cytotoxicity) or ten concentration points (parasite growth inhibition), were made in 96-well transparent Nunclon plates. Pentamidine is routinely included in compound plates as internal quality control, and plates are stored sealed at -20 °C for no more than four weeks. Intermediate plates were made as described, adding 95 μL of DMEM complete media to 5 μL of compound per well setting a 5% DMSO amount. Log-phase MRC5 cells were removed from a T-75 TC flask using TrypLE® Express (Thermo®) and dispersed by gentle pipetting. Cell density was adjusted to working concentration in prewarmed DMEM medium: 25,000 cells in 90 μL of culture were plated in 96-well transparent Nunclon plates and let to settle for 24 h at 37 °C and 5% CO2. After settling incubation, 10 μL of fresh made intermediate plate were added per well: final maximal concentration for compounds was 50 μM in 0.5% DMSO per well. […] Fluorescence was read in an Infinite F200 plate reader (Tecan®) at 550 nm (excitation filter) and 590 nm (emission filter). A 4-parameter equation was used to fit the dose-response curves and determination of EC50 by SigmaPlot ® 13.0 software. Assays were performed in duplicate at least twice for positive compounds, to achieve a minimal n=3 per dose response.

T. cruzi = assay: β-D-Galactosidase transgenic T. cruzi assay (amastigote-infected L6 cells); type: cell-based, T. cruzi Tulahuen C4 strain; conditions: Trypanosoma cruzi, 96 h, read-out: T. cruzi pEC50 (converted)
Protocol: The T. cruzi Tulahuen C4 strain, expressing the β-galactosidase gene (LacZ) and L6 rat skeletal muscle cells, used as host cells, were cultured in RPMI-1640 supplemented with 10% iFBS, 2 mM L-glutamine, 100 U/mL penicillin, and 100 μg/mL streptomycin at 37 °C and 5% CO2.
A Thermo Scientific Multidrop Combi dispenser (MTX Lab Systems, Vienna, VA) was used to dispense 90 μL of T. cruzi amastigote–infected L6 cell culture (4×10^3 infected L6 cells per well) into 96-well Corning assay plates (Corning Inc., Corning, NY) already containing 10 μL of the compounds to be screened and controls. The plates were incubated at 37 °C for 96 h. Then, 30 μL of 100 μM CPRG and 0.1% NP40 diluted in PBS were added to each well, and the plates were incubated for 4 h at 37 °C in the dark. Absorbance at 585 nm was measured in a Vmax kinetic microplate reader ([…]). Compound activities were normalized using the in-plate negative (benznidazole at 10 μg/mL) and positive (0.2% DMSO) growth controls.

L. donovani = assay: EC50 in L. donovani (infected THP-1 macrophages, luciferase); type: cell-based, Leishmania donovani MHOM/ET/67/HU3; conditions: Leishmania donovani, 72 h, read-out: L. donovani pEC50 (converted)
Protocol: Leishmania donovani MHOM/ET/67/HU3 cells with the luciferase gene integrated into the parasite genome[1] were grown at 28 °C in RPMI 1640-modified medium (Invitrogen) supplemented with 20% FBS with […] of hygromycin B.
The Human myelomonocytic cell line THP-1 was grown at 37 °C and 5% CO2 in RPMI-1640 supplemented with 10% iFBS, 2 mM […], 100 U/mL penicillin and […] streptomycin. 3 x 10^4 THP-1 cells per well in 96-well plates were differentiated to macrophages with 20 ng/mL of PMA treatment for 48 h followed by 24 h of culture in fresh medium.
Macrophage-differentiated THP-1 cells were infected at a macrophage/parasite ratio of 1/10 with stationary L. donovani promastigotes for 24 h at 35 °C and 5% CO2, and extracellular parasites were removed by washing with PBS. Infected cell cultures were then incubated with different compounds concentrations at 37 °C for 72 h. Luminescence was measured using the Promega kit luciferase assay system (Promega, Madison, WI). Assays were performed in duplicate at least twice, to achieve a minimal n=3 per dose response.

[1] = Aqueous pH 7.4 solubility; type: physicochemical; conditions: aqueous buffer, thermodynamic from solid; pH 7.4 phosphate buffer, 25 °C, 20-24 h; read-out: Aq. Solubility
Protocol: Compounds are dried down from 10 mM DMSO solutions using centrifugal evaporation technique. Phosphate buffer (0.1 M pH 7.4) added and StirStix inserted in the glass vials, shaking is then performed at a constant temperature of 25 °C for 20-24 h. This step is followed by double centrifugation with a tip wash in between, to ensure that no residues of the dried compound are interfering. The solutions are diluted before analysis and quantification using LC/MS/MS is performed.

[2] = test system: S. mansoni adults and somules; assay: S. mansoni phenotypic assay, adults and somules (severity score); type: cell-based, Schistosoma mansoni (NMRI isolate); conditions: score 0-4; for Adult severity score (10 μM): adults; for Somule severity score (10 μM): somules
Protocol: Maintenance of the Schistosoma mansoni life cycle, preparation of somules (post-infective larvae) and adult worms (≥42-days-old), and co-incubation of these stages with test compounds were as described. An NMRI isolate of S. mansoni was used for all whole-organism screens.
Somules (40 units/well/96w round-bottomed plate) or adults (five paris/well/24w plate) were cultured in the presence of compounds at 10 µM and phenotypic changes observed as a function of time using an Zeiss Axiovert A1 inverted microscope (Table S4). A constrained nomenclature was used to describe the effects of compounds on parasites (changes in shape, motility and density). To generate a partially quantitative output for comparing drug effects, each descriptor was awarded a score of 1 and these were summed to a maximum score of 4 [7-10]: evidence of degeneracy or death was awarded the maximum score of 4. For adults specifically, damage to the tegument (outer surface) was also awarded a score of 4 based on the indication that damage to the patrasite’s surface is lethal in vivo [11]. Assays were performed twice and representative data are shown.

[3] = Human plasma protein binding (equilibrium dialysis); type: in vitro ADME; conditions: pH 7.4, read-out: PPB (converted)
Protocol: PPB is determined using equilibrium dialysis (RED device) to separate free from bound compound. The amount of compound in plasma (10 µM initial concentration) and in dialysis buffer (pH 7.4 phosphate buffer) is measured by LC-MS/MS after equilibration at 37 °C in a dialysis chamber. The fraction unbound (fu) is reported.

[4] = Shake-flask octanol-water Log D7.4; type: physicochemical; conditions: pH 7.4, octanol-water shake-flask
Protocol: Shake-flask octanol-water distribution coefficient at pH 7.4 (Log D7.4). The aqueous solution used is 10 mM sodium phosphate pH 7.4 buffer. The method has been validated for Log D7.4 ranging from -2 to 5.0.

Row | Compound | T.b.b. pEC50 (T. b. brucei) | MRC5 pTC50 (MRC5-SV2 cell line) | further results
1 | Cc1c(Cl)ccc2c1/C(=N/Nc1ccc(S(N)(=O)=O)cc1)C(=O)N2 [NEU-5464] | 7.3 | <5.0^b | –
2 | Cc1cc2c(c(Cl)c1O)/C(=N/Nc1ccc(S(N)(=O)=O)cc1)C(=O)N2 [NEU-5485] | 7.1 | <5.0^b | –
3 | COc1ccc(N/N=C2\C(=O)Nc3ccccc32)cc1 [NEU-2114, (Z)-3-(2-(4-Methoxyphenyl)hydrazono)indolin-2-one] | – | <4.3 | EC50 (T. cruzi): > 10 µM; EC50 (L. donovani): > 10 µM; solubility [1]: < 7 µM; Adult severity score (10 μM) ([2]; 3h): 0; Adult severity score (10 μM) ([2]; 6h): 0; Adult severity score (10 μM) ([2]; 24h): 0; Adult severity score (10 μM) ([2]; 48h): 0; Somule severity score (10 μM) ([2]; 24h): 2; Somule severity score (10 μM) ([2]; 48h): 0; EC50 (T. b. brucei): 10 µM; fraction unbound at 10 µM [3]: < 0.03; logD [4]: > 3.3
4 | Cc1ccc2c(c1C)/C(=N/Nc1ccc(S(N)(=O)=O)cc1)C(=O)N2 [NEU-5479] | 6.9 | <5.0^b | –
5 | Cc1cc2c(c(C)c1O)/C(=N/Nc1ccc(S(N)(=O)=O)cc1)C(=O)N2 [NEU-5469] | 8.2 | <5.0^b | –
6 | CCc1ccc2c(c1)NC(=O)/C2=N\Nc1ccc(S(N)(=O)=O)cc1 [NEU-5470] | 6.1 | <5.0^b | –
7 | O=C1Nc2ccccc2/C1=N/Nc1cc(Cl)cc(Cl)c1 [NEU-2117, (Z)-3-(2-(3,5-Dichlorophenyl)hydrazono)indolin-2-one] | – | <4.3 | EC50 (T. cruzi): > 10 µM; EC50 (L. donovani): > 10 µM; solubility [1]: < 3 µM; Adult severity score (10 μM) ([2]; 3h): 1; Adult severity score (10 μM) ([2]; 6h): 0; Adult severity score (10 μM) ([2]; 24h): 0; Adult severity score (10 μM) ([2]; 48h): 3; Somule severity score (10 μM) ([2]; 24h): 0; Somule severity score (10 μM) ([2]; 48h): 0; EC50 (T. b. brucei): > 39.8 µM; fraction unbound at 10 µM [3]: < 0.04; logD [4]: > 3.7
8 | CC(C)Cc1cccc2c1/C(=N/Nc1ccc(S(N)(=O)=O)cc1)C(=O)N2 [NEU-5487] | 7.4 | <5.0^b | –
9 | NS(=O)(=O)c1ccc(NN=C2C(=O)Nc3cc4c(cc32)NCC4)cc1 [NEU-5459] | – | <5.0^b | EC50 (T. b. brucei): 0.794 µM
10 | NS(=O)(=O)c1ccc(N/N=C2\C(=O)Nc3ccc(Cl)cc32)cc1 [NEU-2319] | 6.0 | <5.0^b | –
11 | NC(=O)c1cccc2c1/C(=N/Nc1ccc(S(N)(=O)=O)cc1)C(=O)N2 [NEU-5460] | 6.2 | <5.0^b | –
12 | CC(C)=Cc1cccc2c1/C(=N/Nc1ccc(S(=O)(=O)N(C)C)cc1)C(=O)N2 [NEU-4405, (Z)-N,N-Dimethyl-4-(2-(4-(2-methylprop-1-en-1-yl)-2-oxoindolin-3-ylidene)hydrazinyl)benzenesulfonamide] | – | <4.3 | EC50 (T. cruzi): > 20 µM; EC50 (L. donovani): > 5.01 µM; EC50 (T. b. brucei): 5.01 µM
13 | CC(C)c1cccc2c1/C(=N/Nc1ccc(S(N)(=O)=O)cc1)C(=O)N2 [NEU-5491] | 7.6 | <5.0^b | –
14 | NS(=O)(=O)c1ccc(N/N=C2\C(=O)Nc3cccc(CC4CCC4)c32)cc1 [NEU-5492] | 6.9 | <5.0^b | –
15 | CCc1cccc2c1/C(=N/Nc1ccc(S(N)(=O)=O)cc1)C(=O)N2 [NEU-5489] | 7.5 | <5.0^b | –
16 | Cc1ccc2c3c(ccc2n1)NC(=O)/C3=N\Nc1ccc(S(N)(=O)=O)cc1 [NEU-5456] | – | <5.0^b | EC50 (T. b. brucei): 0.0398 µM
17 | CC(C)c1cc2c(c(Cl)c1O)/C(=N/Nc1ccc(S(N)(=O)=O)cc1)C(=O)N2 [NEU-5455] | 6.4 | <5.0^b | –
18 | NS(=O)(=O)c1ccc(N/N=C2\C(=O)Nc3cccc(CCc4ccc(O)cc4)c32)cc1 [NEU-5493] | 6.0 | – | –
